Test results reported in patent US8835392B2, “Mimetic peptides and the use thereof in the form of 20S, 26S and immunoproteasome inhibitors” (Technische Universität, priority 2005, dated 2014).
“Also recorded” adds a separate entry of the source. Where a SMILES comes first, the peptide text is derived from it. The star is where a group is joined. Cbz = O=C(OCc1ccccc1)*; Boc = CC(C)(C)OC(=O)*; OtBu = CC(C)(C)O*

Tests used:
[1] = molecular target: T1, 20S proteasome β2 trypsin-like activity (VGR-MCA) (Homo sapiens, UniProt P49720+Q99436); experiment: Protease assay, trypsin-like activity of isolated 20S proteasomes; assay type: biochemical; conditions: isolated 20S proteasome; VGR-MCA 50 μM; 15 min pre-incubation; read-out: IC50 β2 Trypsin-like (R)
T1 construct: Proteasomes were isolated from red blood cells; from tissue; host or cells: red blood cells
Protocol: (§1) Proteasomes were isolated from red blood cells. Cells were lysed with DTT (1 mM), and the stroma-free supernatant was loaded on DEAE-sepharose (Toyopearls). Proteasome was eluted with an NaCl-gradient in TEAD (20 mM TrisCl pH 7.4, 1 mM EDTA, 1 mM azide, 1 mM DTT) of 100 to 300 mM NaCl. Proteasome was concentrated using ammonium sulfate-precipitation (between 40 and 70% saturation) and was separated in a 10-40% sucrose-gradient through centrifugation at 40.000 rpm for 16 hours (SW40; L7, Beckman & Coulter). Finally, the proteasomes were purified on a MonoQ-column and eluted with an NaCl-gradient at about 280 mM NaCl. The fractions containing purified proteasome were dialysed against 50 mM NaCl in TEAD and stored on ice. The purity was determined using SDS-PAGE.
(§2) Suc-LLVY-AMC, Z-VGR-AMC and LLE-AMC (BACHEM, Calbiochem) was used, in order to determine the chymotrypsin-like, trypsin-like or caspase-like (post-acidic)-activities of the proteasome. Substrate was incubated with proteasome at 37° C. in assay-buffer (20 mM Tris/Cl, pH 7.2, 1 mM EDTA, 1 mM DTT) for one hour. 100 ng proteasome was pre-incubated with 0.01-10 μM of the inhibitor for […]. The reaction was started by the addition of substrate (50 μM). The AMC as released was detected using fluorescence emission at 460 nm (excitation at 390 nm) using a TECAN-fluorimeter. The activity was calculated in fluorescence-units. The inhibition is depicted by IC50-values.
(§3) The effects thereof were compared with the one of the commonly used proteasomal inhibitor 3 (MG132). The chymotrypsin-like (Suc-LLVY-AMC), the trypsin-like (Bz-VGR-AMC), and the caspase-like (Z-LLE-AMC)-activities of 20S proteasomes were determined following incubation for one hour at 37° C.
(§4) The IC50-values form the inhibition of the proteasome were calculated at increasing concentrations of the inhibitor. The samples were pre-incubated for 15 min in ice. The assay was started through the addition of 50 μM of one of the following fluorogenic peptide substrates:
(§5) The release of MCA was determined at 460 nm emission (excitation 390 nm). The IC50-values as calculated for MG132 served as controls.

[2] = molecular target: T2, 20S proteasome β1 caspase-like activity (LLE-MCA) (Homo sapiens, UniProt P28072+Q99436); experiment: Protease assay, caspase-like activity of isolated 20S proteasomes; assay type: biochemical; conditions: isolated 20S proteasome; LLE-MCA 50 μM; 15 min pre-incubation; read-out: IC50 β1 Caspase-like (E)
T2 construct: Proteasomes were isolated from red blood cells; from tissue; host or cells: red blood cells
Protocol: as §1, §2, §3, §4, §5

[3] = test system: Human melanoma cells (MeWo); experiment: Viability of human melanoma cells (MeWo), crystal violet-staining; assay type: cell-based; conditions: Homo sapiens, 72 h, read-out: concentration at rate of survival of 50% of the cells
Protocol: (§6) A, Human melanoma cells (MeWo) were treated with increasing concentrations of the compounds 15 or 3 (MG132) for 72 hours. The viability of the cells after the treatment with compound 15 (-♦-) and with MG132 (-□-) was detected by a crystal-violet-staining. B and C, MeWo cells were co-cultivated with the compounds 15 and 3 (MG132) for 24 hours. The cells were subsequently fixed in 70% ethanol, and treated with RNAse A. The DNA was stained with propidium iodide (5 μg/ml), and analysed by means of FACS (FACS Calibur flow cytometer; Beckton Dickinson). The statistical significance was detected by the chi-square-test. The relative distribution of the cells that were present in the G1-(black), in the S-(white) or in the G2 phase (hatched) of the cellular cycle is shown for both compounds as examined (15 in B and MG132 in C).
Human melanoma cells (MeWo) were incubated for 72 h with different concentrations of the inhibitor 15 and 28, and the viability of the cells was determined by means of crystal violet-staining (FIG. 8).

Fibroblasts = experiment: Viability of fibroblasts (control); assay type: cell-based; conditions: Fibroblast, identical conditions (72 h), read-out: concentration for 50% reduction of the viability
[4] = test system: Human melanoma cells (MeWo); experiment: Cell cycle arrest in MeWo cells, propidium iodide FACS; assay type: cell-based; conditions: 24 hours
Protocol: as §6
Human melanoma cells (MeWo) were with the compounds 15 and 3 (MG132) for 24 hours co-cultivated. The cells were washed with PBS, in 70% ethanol fixed and subsequently treated with RNAse A. The DNA was stained with propidium iodide (5 μg/ml) and analysed by means of flow-cytometry (FACS Calibur flow cytometer; Beckton Dickinson). The relative dispersion of the cells that were present in different phases of the cell cycle, could thus be detected. […] The statistical significance was detected by the Chi-square test.

[5] = molecular target: T3, 20S proteasome β5 chymotrypsin-like activity (GLL-MCA) (Homo sapiens, UniProt P20618+P28074); experiment: Protease assay, chymotrypsin-like activity of isolated 20S proteasomes (GLL substrate); assay type: biochemical; conditions: isolated 20S proteasome; GLL-MCA 50 μM; 15 min pre-incubation; read-out: IC50 β5 Chym.-like (L)
T3 construct: Proteasomes were isolated from red blood cells; from tissue; host or cells: red blood cells
Protocol: as §1, §2, §4, §5

20S proteasome = test system: T4, 20S proteasome; experiment: Inhibition of the different proteasomal activities, summary statements; assay type: biochemical; conditions: isolated proteasomes, specific substrates
T4 construct: Proteasomes were isolated from red blood cells; from tissue; host or cells: red blood cells
Protocol: The specific inhibition of a single catalytic site is of specific interest for the development of drugs. Thus, the inhibition of the different proteasomal activities of the proteasome was analysed (see also example 6). The different cleavage-preferences of the proteasome were determined by the specific substrate for the hydrophobic (chymotrypsin-like), the trypsine-like and the caspase-like activities of isolated proteasomes.
as §2, §3

[6] = molecular target: T5, proteasomal activity in HeLa-cells (Homo sapiens, UniProt P20618+P28074); experiment: Intracellular inhibition of proteasomes in cultivated HeLa-cells; assay type: cell-based
T5 construct: endogenous in cells; host or cells: HeLa
Protocol: A, HeLa-cells were cultivated were 24 hours in the presence of the inhibitor. The protein concentration was determined in accordance with the cellular lysis according to Bradford in order to normalise the proteasomal activities to the different amounts of cells. Subsequently Complete (Roche) was added to all lysates, and the proteasomal activity was determined through the hydrolysis of Suc-LLVY-AMC. B, HeLa-cells was incubated with 1 μM of compound 15 for 2, 4, 6 and 24 hours. Cells were lysed, and proteins were separated through SDS-PAGE on a 10% gel, blotted to a PVDF-membrane. The accumulation of the poly-ubiquitinylated proteins was detected in a Western blot by an anti-ubiquitine-antibody (DAKO). C, HeLa-Cells were treated with increasing concentrations of the inhibitor 15, 25, 26, 27, and 28 for 24 hours (lane 1: without inhibitor; lane 2: 10 nM; lane 3: 100 nM and lane 4: 1 μM of the given inhibitor). Cells were lysed, proteins were separated on 15% gels, and the accumulation of the poly-ubiquitinylated proteins was controlled through Western blot.
HeLa-Cells were cultivated in RPMI, supplemented with 10% FCS and penicillin/streptomycin, at 5% CO2. Inhibitors were administered from 100×-stock solutions (in DMSO) at the final concentrations as indicated, and incubated with the cells for at least 20 hours.
Cultivated cells (HeLa) were harvested lysed and with 0.1% NP40 in TEAD in the presence of the commercially available protease-inhibitor-mixture Complete (Roche). The proteasomal activity was measured in 10 μl of the lysate using Suc-LLVY-AMC as a substrate. The protein content was quantified by means of Bradford (Protein assay; BioRad).
An application on cell cultures or animals requires that the concentrations of the inhibitors are chose as low as required. The specific proteasomal activity was reduced to a value of below 50% in cells that were treated with 1 μM of the compounds 15, 22, 25, 26, or 28, respectively (FIG. 6A).

[7] = molecular target: T6, 20S proteasome β5 chymotrypsin-like activity (Suc-LLVY-AMC) (Homo sapiens, UniProt P20618+P28074); experiment: Protease assay, chymotrypsin-like activity of isolated 20S proteasomes (LLVY substrate); assay type: biochemical; conditions: isolated 20S proteasome; LLVY-MCA 50 μM; 15 min pre-incubation; read-out: IC50 β5 Chymotrypsin-like (Y)
T6 construct: Proteasomes were isolated from red blood cells; from tissue; host or cells: red blood cells
Protocol: as §1, §2
The chymotrypsin-like (Suc-LLVY-AMC), the trypsin-like (Bz-VGR-AMC), and the caspase-like (Z-LLE-AMC)-activities of 20S proteasomes were determined following incubation for one hour at 37° C.
as §4, §5

[8] = test system: caspase 3/7 activation in HeLa-cells; experiment: Apoptosis-assay, caspase 3/7-activity (Apo-One); assay type: cell-based; conditions: 1 μM, 20 hours
Protocol: HeLa-cells that were cultivated for 20 hours in the presence of the given inhibitor, were subsequently incubated for 2 hours with caspase-substrate (Apo-One; Promega). The activation of caspases 3/7 was measured at 538 nm (excitation at 485 nm). Treatment of the cells with TNFα or with MG132 served as control.
For this, 10,000 HeLa-cells pro well were seeded in a 96-well-plate, and co-cultivated for 20 hours with 1 μM of the inhibitors 7, 8, 11, 13-16, 18, 20-23 and 25-28. The induction of apoptosis was determined by measuring of the caspase 3/7-activity (Apo-One®-Assay, Promega).

Compound	IC50 [1] [nM]	IC50 [2] [nM]	IC50 [3] [nM]	IC50 (Fibroblasts) [nM]	concentration giving arrest of the cell cycle in the G2 phase [4] [nM]	IC50 [5] [nM]	which proteasomal activities are inhibited (site selectivity) (20S proteasome)	reduction of the specific proteasomal activity in cells ([6]; HeLa cells, 1 μM)	IC50 [7] [nM]	membrane-permeation ([6]; cultivated cells)	stability during the incubation periods ([6]; cultivated cells)	proteasomal activity reduced to ([6]; cultivated cells, remaining activity) [%]	induction of apoptosis (activation of caspase 3 and 7) [8]
CC(C)C[C@@H](C=O)NC(=O)[C@H](CC(C)C)NC(=O)[C@H](CC(C)C)NC(=O)OCc1ccccc1 [Compound 3, reference compound] (Cbz-Leu-Leu-Leu-aldehyde)	9220	2290	35	500 to 1000	100	–	–	–	–	–	–	–	–
CC(C)C[C@@H](C=O)NC(=O)[C@H](CC(=O)OC(C)(C)C)NC(=O)[C@H](CC(C)C)NC(=O)OC(C)(C)C [Compound 13] (Boc-Leu-Asp(OtBu)-Leu-aldehyde)	–	98	–	–	–	102	inhibited all of the proteasomal hydrolytic activities	markedly reduction	–	–	–	–	–
CC(C)C[C@@H](C=O)NC(=O)[C@H](CC(=O)O)NC(=O)[C@@H](N)CC(C)C [Compound 14] (H-Leu-Asp-Leu-aldehyde)	> 10000	> 10000	–	–	–	> 10000	–	–	> 10000	–	–	–	–
CC(C)C[C@H](NC(=O)OCc1ccccc1)C(=O)N[C@@H](CC(C)C)C(=O)N[C@@H](CC(C)C)C(=O)C(=O)NCc1ccccc1 [Compound 26]	–	1720	–	–	–	–	inhibited the chymotryptic and the caspase-like sites	–	441	membrane-permeation	sufficient stability	10	beginning apoptosis; also recorded: strong induction of apoptosis
